Test results: patent US6800770B2, “Anti-spasticity of an eicosanoid analog” (Virginia Commonwealth University, priority 2002, dated 2004)

Experiments:
CB1 = target: T1, CB1 (Rattus norvegicus, UniProt P20272); assay type: binding; details: displacement of [3H]CP55940, whole rat brain membranes; means ± S.D., n=3; read-out: CB1 affinity (Ki)
T1 construct: from whole rat brain membranes; from tissue; host or cells: whole rat brain membranes

human VR1 receptors = target: T2, human VR1 receptors (Homo sapiens, UniProt Q8NER1); experiment: Enhancement of [Ca2+] via HEK-hVR1 cells; assay type: cell-based
T2 construct: expressed in transfected cells; host or cells: HEK-hVR1 cells
T2 sequence (Q8NER1 whole entry): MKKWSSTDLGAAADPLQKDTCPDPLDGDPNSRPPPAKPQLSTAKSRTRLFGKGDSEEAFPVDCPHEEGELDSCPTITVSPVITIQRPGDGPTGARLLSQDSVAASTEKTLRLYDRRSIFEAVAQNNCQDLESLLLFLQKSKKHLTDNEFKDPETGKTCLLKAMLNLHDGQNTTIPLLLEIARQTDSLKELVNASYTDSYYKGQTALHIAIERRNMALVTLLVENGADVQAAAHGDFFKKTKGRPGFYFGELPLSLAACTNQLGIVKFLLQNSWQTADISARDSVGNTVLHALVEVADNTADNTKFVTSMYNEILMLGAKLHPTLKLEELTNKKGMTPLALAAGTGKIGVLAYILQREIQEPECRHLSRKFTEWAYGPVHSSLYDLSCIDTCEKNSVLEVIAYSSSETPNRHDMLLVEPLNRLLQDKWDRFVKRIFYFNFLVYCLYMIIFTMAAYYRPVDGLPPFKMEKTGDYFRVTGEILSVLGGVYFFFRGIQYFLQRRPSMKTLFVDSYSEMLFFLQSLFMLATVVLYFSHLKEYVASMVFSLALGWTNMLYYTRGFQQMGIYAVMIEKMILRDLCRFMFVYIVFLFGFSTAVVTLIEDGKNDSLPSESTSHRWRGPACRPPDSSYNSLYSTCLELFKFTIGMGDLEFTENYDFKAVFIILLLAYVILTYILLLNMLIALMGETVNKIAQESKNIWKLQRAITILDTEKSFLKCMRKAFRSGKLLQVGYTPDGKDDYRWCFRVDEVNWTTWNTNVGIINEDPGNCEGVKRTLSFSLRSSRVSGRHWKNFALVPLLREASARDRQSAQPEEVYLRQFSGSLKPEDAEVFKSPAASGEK
Source text: J. Pharm. Exp. Ther. 300: 984.

[1] = test system: spasticity in Biozzi ABH mice; details: 0.05 mg/kg i.v.; baseline vs 30 min after treatment
Protocol: This was assessed to detect limb stiffness by analysis using a strain gauge (Baker et al 2000). The analogue signal from the strain gauge was amplified and digitally converted using an ComputerBoards Inc PCM-DAS16S/12 card (Amplicon, Brighton, UK). This was captured using Dacquire V10 software (D.Buckwell, Institute of Neurology, UK) and analyzed using Spike 2 software (Cambridge Electronics Design, UK). The hindlimbs were fully extended twice then moved to full flexion against the strain gauge. The mean of 4-8 individual readings per limb was taken for each time point. Results are expressed as means of forces of resistance to flexion (in Newtons) and SEM per group.
Statistical analysis was performed using Sigmastat 2.0 (Jandel/SPSS, USA) using one-way repeated measures analysis of variance (ANOVA) incorporating a pair-wise Student-Newman-Keuls (SNK) test. […] N=13 limbs analyzed from 8 spastic animals.
Arvanil treatment was carried out with and without pretreatment of the animals with SR141617A, SR144528 (known to inhibit CB1 and CB2 receptor function, respectively) and capsazepine, a known antagonist of the vanilloid recpetor (VR-1).

T1 sequence (P20272 whole entry): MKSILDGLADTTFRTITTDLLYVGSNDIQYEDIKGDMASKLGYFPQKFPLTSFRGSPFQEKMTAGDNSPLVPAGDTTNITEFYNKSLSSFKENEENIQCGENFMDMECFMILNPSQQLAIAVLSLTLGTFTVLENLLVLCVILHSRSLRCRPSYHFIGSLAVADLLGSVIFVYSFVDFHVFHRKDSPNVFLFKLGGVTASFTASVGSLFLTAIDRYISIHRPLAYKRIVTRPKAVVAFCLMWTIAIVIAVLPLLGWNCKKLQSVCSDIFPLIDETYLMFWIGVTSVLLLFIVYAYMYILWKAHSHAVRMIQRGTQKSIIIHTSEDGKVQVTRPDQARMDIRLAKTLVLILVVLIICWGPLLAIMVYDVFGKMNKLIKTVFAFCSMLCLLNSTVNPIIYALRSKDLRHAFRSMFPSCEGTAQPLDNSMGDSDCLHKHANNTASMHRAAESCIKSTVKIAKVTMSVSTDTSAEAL

`CCCCC/C=C\C/C=C\C/C=C\C/C=C\CCCC(=O)N(Cc1ccc(O)c(Cl)c1)Cc1ccc(O)c(Cl)c1` [O-2093, N,N-Di-3-chloro-4-hydroxybenzylarachadonamide] gave a Ki (CB1) of 1.29 ± 0.14 µM, an Emax (human VR1 receptors; in parentheses in the hVR1 potency column, read-out: hVR1 efficacy (maximal effect as percentage of the effect of 4 μM capsaicin)) of 26.9% and an EC50 (human VR1 receptors; read-out: hVR1 potency (EC50), means ± S.D., n=3) of over 50 µM. For the same compound, the “decrease in resistance to flexion” value [1] was about 35%.
